Laboratory results published in patent US20240391965A1, “STAPLED ANTIMICROBIAL PEPTIDES (STAMPS) AND USES THEREOF” (Lytica Therapeutics, Inc., priority 2021, published 2024).
Converted amounts (≈) assume the structure as drawn. Starred links: 1 amine or outer side, 2 acyl side, 3 side chain; linkers in the order of their positions; H or OH if unused. Positions of bridges follow the written chain, without caps; N, C: chain ends. Residues, ends and D or L forms follow the SMILES beside them. 2,2'Bipyridine(5,5'-diCH2) = c1cc(-c2ccc(C[*:2])cn2)ncc1C[*:1]; Naphthalene(2,6-diCH2) = c1cc2cc(C[*:2])ccc2cc1C[*:1]

Tests used:
[1] = test system: Acinetobacter baumannii (A. baumannii); format: cell-based; details: microbroth dilution, 20-24 hours at 37° C.
Experimental: (§1) Antimicrobial Activity Assay: The following microbroth dilution protocol was adapted from CLSI to determine the minimum inhibitory concentration (MIC) of StAMPs. Briefly, Mueller-Hinton broth (MHB) or cation-adjusted Mueller-Hinton broth (MHB II) was prepared and autoclaved. Then, a colony of bacterial cells was picked and grown overnight in broth at 37° C. and then diluted and allowed to grow again for 3-4 hours. Serial dilutions of peptide stocks in water (10 μl) were prepared using clear round-bottom polypropylene 96-well plates. Then 90 μl of bacteria in broth was added to give a final inoculum of 5×10^5 CFU/ml. The plates were then covered with porous tape to reduce evaporation and incubated for 20-24 hours at 37° C. The MIC was the minimum peptide concentration at which no visible bacterial growth was observed.

[2] = test system: Escherichia coli (E. coli); format: cell-based; details: microbroth dilution, 20-24 hours at 37° C.
Experimental: as §1

[3] = test system: Klebsiella pneumoniae (K. pneumoniae); format: cell-based; details: microbroth dilution, 20-24 hours at 37° C.
Experimental: as §1

[4] = test system: Pseudomonas aeruginosa (P. aeruginosa); format: cell-based; details: microbroth dilution, 20-24 hours at 37° C.
Experimental: as §1

[5] = test system: Staphylococcus aureus (S. aureus); format: cell-based; details: microbroth dilution, 20-24 hours at 37° C.
Experimental: as §1

[6] = 48 hours cytotoxicity assay (CellTiter-Glo), liver toxicity; format: cell-based, human; details: 48 hours of incubation, CellTiter-Glo; read-out: Inhibitory Concentration at 50% Cytotoxicity (IC50) Human Liver Cells (HepG2)
Summary of the method: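 HepG2 cells in EMEM with 10% FBS, allowed to attach 4 h, then exposed to serially diluted StAMPs or vehicle for 48 h at 37 °C. Viability read by CellTiter-Glo luminescence.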

Row | Structure (SMILES) | Minimum Inhibitory Concentration (MIC) A. baumannii [1] [µg/mL] | Minimum Inhibitory Concentration (MIC) E. coli [2] [µg/mL] | Minimum Inhibitory Concentration (MIC) K. pneumoniae [3] [µg/mL] | Minimum Inhibitory Concentration (MIC) P. aeruginosa [4] [µg/mL] | Minimum Inhibitory Concentration (MIC) S. aureus [5] [µg/mL] | IC50 [6] [µg/mL]
1 | CC[C@H](C)[C@H](NC(=O)CN)C(=O)N[C@@H](Cc1ccccc1)C(=O)N[C@@H](CO)C(=O)N[C@@H](CCCCN)C(=O)N[C@@H](CC(C)C)C(=O)N[C@@H](C)C(=O)N[C@H]1CSCc2ccc3cc(ccc3c2)CSC[C@@H](C(=O)N[C@H](C(=O)N[C@@H](CO)C(=O)NCC(=O)N[C@@H](CC(C)C)C(=O)N[C@@H](CCCCN)C(=O)NCC(N)=O)[C@@H](C)CC)NC(=O)[C@H](CC(C)C)NC(=O)[C@H](CC(N)=O)NC(=O)[C@H](CCCCN)NC(=O)[C@H]([C@@H](C)CC)NC(=O)[C@H](CCCCN)NC(=O)[C@H](CCCCN)NC1=O [compound 67] (H-GIFSKLACKKIKNLCISGLKG-NH2; linker 8-15 via Naphthalene(2,6-diCH2)) | 4 | 4 | 8 | 32 | >64 | 59 (≈ 24.9 µM)
2 | CC[C@H](C)[C@H](NC(=O)CN)C(=O)N[C@@H](Cc1ccccc1)C(=O)N[C@@H](CO)C(=O)N[C@@H](CCCCN)C(=O)N[C@@H](CC(C)C)C(=O)N[C@@H](C)C(=O)NCC(=O)N[C@H]1CSCc2ccc3cc(ccc3c2)CSC[C@@H](C(=O)N[C@@H](CO)C(=O)NCC(=O)N[C@@H](CC(C)C)C(=O)N[C@@H](CCCCN)C(=O)NCC(N)=O)NC(=O)[C@H](CC(C)C)NC(=O)[C@H](CC(C)C)NC(=O)[C@H](CC(N)=O)NC(=O)[C@H](CCCCN)NC(=O)[C@H]([C@@H](C)CC)NC(=O)[C@H](CCCCN)NC1=O [compound 69] (H-GIFSKLAGCKIKNLLCSGLKG-NH2; linker 9-16 via Naphthalene(2,6-diCH2); N-terminus assumed) | 16 | 16 | 32 | >64 | >64 | 52 (≈ 22.6 µM)
3 | CC[C@H](C)[C@H](NC(=O)CN)C(=O)N[C@@H](Cc1ccccc1)C(=O)N[C@@H](CO)C(=O)N[C@@H](CCCCN)C(=O)N[C@@H](CC(C)C)C(=O)N[C@@H](C)C(=O)NCC(=O)N[C@H]1CSCc2ccc(nc2)-c2ccc(cn2)CSC[C@@H](C(=O)N[C@@H](CO)C(=O)NCC(=O)N[C@@H](CC(C)C)C(=O)N[C@@H](CCCCN)C(=O)NCC(N)=O)NC(=O)[C@H](CC(C)C)NC(=O)[C@H](CC(C)C)NC(=O)[C@H](CC(N)=O)NC(=O)[C@H](CCCCN)NC(=O)[C@H]([C@@H](C)CC)NC(=O)[C@H](CCCCN)NC1=O [compound 71] (H-GIFSKLAGCKIKNLLCSGLKG-NH2; linker 9-16 via 2,2'Bipyridine(5,5'-diCH2); N-terminus assumed) | 32 | 64 | >64 | >64 | >64 | 360 (≈ 155 µM)
4 | CC[C@H](C)[C@H](NC(=O)CN)C(=O)N[C@@H](Cc1ccccc1)C(=O)N[C@@H](CO)C(=O)N[C@@H](CCCCN)C(=O)N[C@@H](CC(C)C)C(=O)N[C@@H](C)C(=O)NCC(=O)N[C@@H](CCCCN)C(=O)N[C@@H](CCCCN)C(=O)N[C@H]1CSCc2ccc3cc(ccc3c2)CSC[C@@H](C(=O)N[C@@H](CC(C)C)C(=O)N[C@@H](CCCCN)C(=O)NCC(N)=O)NC(=O)[C@H](CO)NC(=O)[C@H]([C@@H](C)CC)NC(=O)[C@H](CC(C)C)NC(=O)[C@H](CC(C)C)NC(=O)[C@H](CC(N)=O)NC(=O)[C@H](CCCCN)NC1=O [compound 75] (H-GIFSKLAGKKCKNLLISCLKG-NH2; linker 11-18 via Naphthalene(2,6-diCH2); N-terminus assumed) | 4 | 4 | 16 | 16 | 64 | 98 (≈ 41.3 µM)
5 | CC[C@H](C)[C@H](NC(=O)CN)C(=O)N[C@@H](Cc1ccccc1)C(=O)N[C@@H](CO)C(=O)N[C@@H](CCCCN)C(=O)N[C@@H](CC(C)C)C(=O)N[C@@H](C)C(=O)NCC(=O)N[C@@H](CCCCN)C(=O)N[C@@H](CCCCN)C(=O)N[C@H]1CSCc2ccc(nc2)-c2ccc(cn2)CSC[C@@H](C(=O)N[C@@H](CC(C)C)C(=O)N[C@@H](CCCCN)C(=O)NCC(N)=O)NC(=O)[C@H](CO)NC(=O)[C@H]([C@@H](C)CC)NC(=O)[C@H](CC(C)C)NC(=O)[C@H](CC(C)C)NC(=O)[C@H](CC(N)=O)NC(=O)[C@H](CCCCN)NC1=O [compound 77] (H-GIFSKLAGKKCKNLLISCLKG-NH2; linker 11-18 via 2,2'Bipyridine(5,5'-diCH2); N-terminus assumed) | 4 | 4 | 32 | 32 | >64 | 159 (≈ 66.2 µM)
6 | CC[C@H](C)[C@H](NC(=O)CN)C(=O)N[C@@H](Cc1ccccc1)C(=O)N[C@@H](CO)C(=O)N[C@@H](CCCCN)C(=O)N[C@@H](CC(C)C)C(=O)N[C@@H](C)C(=O)NCC(=O)N[C@@H](CCCCN)C(=O)N[C@@H](CCCCN)C(=O)N[C@H](C(=O)N[C@H]1CSCc2ccc3cc(ccc3c2)CSC[C@@H](C(=O)N[C@@H](CCCCN)C(=O)NCC(N)=O)NC(=O)CNC(=O)[C@H](CO)NC(=O)[C@H]([C@@H](C)CC)NC(=O)[C@H](CC(C)C)NC(=O)[C@H](CC(C)C)NC(=O)[C@H](CC(N)=O)NC1=O)[C@@H](C)CC [compound 78] (H-GIFSKLAGKKICNLLISGCKG-NH2; linker 12-19 via Naphthalene(2,6-diCH2); N-terminus assumed) | 16 | 16 | 64 | 64 | >64 | 108 (≈ 46.9 µM)
7 | CC[C@H](C)[C@H](NC(=O)CN)C(=O)N[C@@H](Cc1ccccc1)C(=O)N[C@@H](CO)C(=O)N[C@@H](CCCCN)C(=O)N[C@@H](CC(C)C)C(=O)N[C@@H](C)C(=O)NCC(=O)N[C@@H](CCCCN)C(=O)N[C@@H](CCCCN)C(=O)N[C@H](C(=O)N[C@H]1CSCc2ccc(nc2)-c2ccc(cn2)CSC[C@@H](C(=O)N[C@@H](CCCCN)C(=O)NCC(N)=O)NC(=O)CNC(=O)[C@H](CO)NC(=O)[C@H]([C@@H](C)CC)NC(=O)[C@H](CC(C)C)NC(=O)[C@H](CC(C)C)NC(=O)[C@H](CC(N)=O)NC1=O)[C@@H](C)CC [compound 80] (H-GIFSKLAGKKICNLLISGCKG-NH2; linker 12-19 via 2,2'Bipyridine(5,5'-diCH2); N-terminus assumed) | 32 | 32 | >64 | >64 | >64 | 49 (≈ 21 µM)
